Columns and labels:
[1] = Cytotoxicity against human A549-ACE2 cells assessed as reduction in cell viability; format: toxicity, cell-based
[2] = Half life in dog at 20 mg/kg, po; format: ADME, organism-based, Canis lupus familiaris; conditions: in vivo
[3] = Clearance in dog at 20 mg/kg, po; format: ADME, organism-based, Canis lupus familiaris; conditions: in vivo
[4] = MRT (0 to last) in dog at 2 mg/kg, iv; format: ADME, organism-based, Canis lupus familiaris; conditions: in vivo
[5] = Lipophilicity, logD of compound; format: physicochemical; conditions: octanol/water
[6] = AUC (0 to last) in dog at 2 mg/kg, iv; format: ADME, organism-based, Canis lupus familiaris; conditions: in vivo
SARS-CoV-2 = test: Antiviral activity against SARS CoV-2 infected in human HeLa-ACE2 assessed as reduction in viral replication incubated for 24 hrs; format: functional; conditions: Severe acute respiratory syndrome coronavirus 2, HeLa-ACE2
[7] = Cmax in dog at 20 mg/kg, po; format: ADME, organism-based, Canis lupus familiaris; conditions: in vivo
[8] = Cmax in dog at 2 mg/kg, iv; format: ADME, organism-based, Canis lupus familiaris; conditions: in vivo
[9] = Tlast in dog at 2 mg/kg, iv; format: ADME, organism-based, Canis lupus familiaris; conditions: in vivo
[10] = Intrinsic clearance in mouse liver microsomes; format: ADME, Microsome; conditions: read-out: CLH
[11] = Volume of distribution in dog at 2 mg/kg, iv; format: ADME, organism-based, Canis lupus familiaris; conditions: in vivo
[12] = Half life in dog at 2 mg/kg, iv; format: ADME, organism-based, Canis lupus familiaris; conditions: in vivo
[13] = AUC (0 to last) in dog at 20 mg/kg, po; format: ADME, organism-based, Canis lupus familiaris; conditions: in vivo
[14] = Plasma protein binding in human; format: ADME, cell-free; conditions: read-out: PPB (converted)
[15] = MRT (0 to last) in dog at 20 mg/kg, po; format: ADME, organism-based, Canis lupus familiaris; conditions: in vivo
[16] = Tlast in dog at 20 mg/kg, po; format: ADME, organism-based, Canis lupus familiaris; conditions: in vivo
[17] = Oral bioavailability in dog at 20 mg/kg; format: ADME, organism-based, Canis lupus familiaris; conditions: in vivo
[18] = Clearance in dog at 2 mg/kg, iv; format: ADME, organism-based, Canis lupus familiaris; conditions: in vivo
[19] = target: Replicase polyprotein 1ab (Severe acute respiratory syndrome coronavirus 2, UniProt P0DTD1); test: Inhibition of SARS-CoV-2 papain-like protease using Z-Arg-Leu-Arg-Gly-Gly-AMC as substrate incubated for 15 mins
[20] = Ratio of CC50 for cytotoxicity against human A549-ACE2 cells assessed as reduction in cell viability to EC90 for antiviral activity against SARS CoV-2 infected in human HeLa-ACE2 assessed as reduction in viral replication; format: toxicity, cell-based

SMILES: COC(=O)/C=C/C(=O)NNC(=O)CCc1ccccc1C(=O)N[C@H](C)c1cccc2ccccc12
- CC50 ([1]; a549-ace2): 29.9 µM
- half-life [2]: 72.6 min
- CL/F [3]: 3710 mL/min/kg
- MRT last [4]: 6.84 min
- logD [5]: 3
- AUC(0-t) [6]: 315 ng·h/mL
- EC90 (SARS-CoV-2): 0.49 µM
- Cmax [7]: 84 ng/mL
- Cmax [8]: 2840 ng/mL
- Tlast [9]: 1 h
- microsomal CLint [10]: 144 µL/min/mg
- Vd [11]: 0.742 L/kg
- half-life [12]: 6 min
- AUC(0-t) [13]: 91 ng·h/mL
- fraction unbound [14]: 0.049
- MRT last [15]: 97.2 min
- Tlast [16]: 8 h
- bioavailability [17]: 2.9%
- clearance [18]: 107 mL/min/kg

SMILES: C[C@@H](NC(=O)c1ccccc1CCC(=O)NNC(=O)CC#N)c1cccc2ccccc12
- CC50 ([1]; A549-ACE2 cells): > 99 µM
- IC50 [19]: 9.5 µM
- EC90 (SARS-CoV-2): > 9.6 µM

SMILES: C[C@@H](NC(=O)c1ccccc1CCC(=O)NNC(=O)/C=C/C(=O)OCc1nccs1)c1cccc2ccccc12
- CC50 ([1]; a549-ace2): 16 µM
- IC50 [19]: 0.34 µM
- EC90 (SARS-CoV-2): 9.23 µM

SMILES: COC(=O)/C=C\C(=O)NNC(=O)CCc1ccccc1C(=O)N[C@H](C)c1cccc2ccccc12
- CC50 ([1]; a549-ace2): 34.6 µM
- EC90 (SARS-CoV-2): 0.71 µM

SMILES: C[C@@H](NC(=O)c1ccccc1CCC(=O)NNC(=O)/C=C/C(=O)OCC1CCCC1)c1cccc2ccccc12
- CC50 ([1]; a549-ace2): 69.5 µM
- IC50 [19]: 1.62 µM
- EC90 (SARS-CoV-2): 0.31 µM

SMILES: COC(=O)/C=C/C(=O)NNC(=O)CCc1ccccc1C(=O)N[C@H](C)c1cccc(-c2cn[nH]c2)c1
- CC50 ([1]; A549-ACE2 cells): > 99 µM
- IC50 [19]: 0.21 µM
- EC90 (SARS-CoV-2): 3.58 µM

SMILES: C[C@@H](NC(=O)c1ccccc1CCC(=O)NNC(=O)/C=C/C(=O)OCCC(F)(F)F)c1cccc2ccccc12
- CC50 ([1]; a549-ace2): 61.9 µM
- IC50 [19]: 0.25 µM
- EC90 (SARS-CoV-2): 1.26 µM

SMILES: C[C@@H](NC(=O)c1ccccc1CCC(=O)NNC(=O)/C=C/C(=O)OC1CCCCC1)c1cccc2ccccc12
- CC50 ([1]; A549-ACE2 cells): > 99 µM
- IC50 [19]: 0.96 µM
- EC90 (SARS-CoV-2): 0.41 µM

SMILES: CCOC(=O)/C=C/C(=O)NNC(=O)CCc1ccccc1C(=O)N[C@H](C)c1cccc2ccccc12
- CC50 ([1]; a549-ace2): 44.7 µM
- IC50 [19]: 0.19 µM
- EC90 (SARS-CoV-2): 0.31 µM

SMILES: C[C@@H](NC(=O)c1ccccc1CCC(=O)NNC(=O)/C=C/C(=O)N(C)C)c1cccc2ccccc12
- CC50 ([1]; A549-ACE2 cells): > 99 µM
- IC50 [19]: 18.5 µM
- EC90 (SARS-CoV-2): > 9.6 µM

SMILES: C=C(CC(=O)NNC(=O)CCc1ccccc1C(=O)N[C@H](C)c1cccc2ccccc12)C(=O)OC
- CC50 ([1]; a549-ace2): 6.1 µM
- IC50 [19]: 17.9 µM
- EC90 (SARS-CoV-2): 8.3 µM

SMILES: COC(=O)/C=C/C(=O)NNC(=O)CCc1ccccc1C(=O)N[C@H](C)c1cccc(C2=CCOCC2)c1
- CC50 ([1]; a549-ace2): 48.4 µM
- IC50 [19]: 0.29 µM
- EC90 (SARS-CoV-2): 1.24 µM

SMILES: COC(=O)/C=C/CNC(=O)CCc1ccccc1C(=O)N[C@H](C)c1cccc2ccccc12
- CC50 ([1]; a549-ace2): 87.9 µM
- IC50 [19]: 26.2 µM
- EC90 (SARS-CoV-2): > 9.6 µM

SMILES: C[C@@H](NC(=O)c1ccccc1CCC(=O)NNC(=O)C(F)Cl)c1cccc2ccccc12 (stereo not given in full)
- CC50 ([1]; A549-ACE2 cells): > 99 µM
- IC50 [19]: 15.8 µM
- EC90 (SARS-CoV-2): > 9.6 µM

SMILES: C[C@@H](NC(=O)c1ccccc1CCC(=O)NNC(=O)/C=C/C(=O)OCc1ncccn1)c1cccc2ccccc12
- CC50 ([1]; a549-ace2): 30.1 µM
- IC50 [19]: 0.35 µM
- EC90 (SARS-CoV-2): 3.03 µM

SMILES: CC(=O)C(=O)NNC(=O)CCc1ccccc1C(=O)N[C@H](C)c1cccc2ccccc12
- CC50 ([1]; A549-ACE2 cells): > 99 µM
- IC50 [19]: 37.3 µM
- EC90 (SARS-CoV-2): > 9.6 µM

SMILES: CCCCOC(=O)/C=C/C(=O)NNC(=O)CCc1ccccc1C(=O)N[C@H](C)c1cccc2ccccc12
- CC50 ([1]; A549-ACE2 cells): > 99 µM
- IC50 [19]: 0.24 µM
- EC90 (SARS-CoV-2): 0.18 µM

SMILES: CC#CC(=O)NNC(=O)CCc1ccccc1C(=O)N[C@H](C)c1cccc2ccccc12
- CC50 ([1]; a549-ace2): 68.9 µM
- IC50 [19]: 11.3 µM
- EC90 (SARS-CoV-2): > 9.6 µM

SMILES: C[C@@H](NC(=O)c1ccccc1CCC(=O)NNC(=O)/C=C/C(=O)OC(C)(C)C)c1cccc2ccccc12
- CC50 ([1]; a549-ace2): 64 µM
- IC50 [19]: 0.24 µM
- EC90 (SARS-CoV-2): 1.75 µM

SMILES: C[C@@H](NC(=O)c1ccccc1CCC(=O)NNC(=O)/C=C/C(=O)OCc1ccccc1)c1cccc2ccccc12
- CC50 ([1]; a549-ace2): 98.9 µM
- IC50 [19]: 0.52 µM
- EC90 (SARS-CoV-2): 0.78 µM

SMILES: CC(=O)/C=C/C(=O)NNC(=O)CCc1ccccc1C(=O)N[C@H](C)c1cccc2ccccc12
- CC50 ([1]; A549-ACE2 cells): > 99 µM
- IC50 [19]: 27.2 µM
- EC90 (SARS-CoV-2): 12.9 µM

SMILES: C[C@@H](NC(=O)c1ccccc1CCC(=O)NNC(=O)/C=C/C(=O)O)c1cccc2ccccc12
- CC50 ([1]; A549-ACE2 cells): > 99 µM
- IC50 [19]: 2.6 µM
- EC90 (SARS-CoV-2): > 9.6 µM

SMILES: CNC(=O)/C=C/C(=O)NNC(=O)CCc1ccccc1C(=O)N[C@H](C)c1cccc2ccccc12
- CC50 ([1]; A549-ACE2 cells): > 99 µM
- IC50 [19]: 16.2 µM
- EC90 (SARS-CoV-2): > 9.6 µM

SMILES: C[C@@H](NC(=O)c1ccccc1CCC(=O)NNC(=O)/C=C/C#N)c1cccc2ccccc12
- CC50 ([1]; a549-ace2): 13.1 µM
- IC50 [19]: 1.9 µM
- EC90 (SARS-CoV-2): 15.2 µM

SMILES: COc1ccc(COC(=O)/C=C/C(=O)NNC(=O)CCc2ccccc2C(=O)N[C@H](C)c2cccc3ccccc23)cc1OC
- CC50 ([1]; A549-ACE2 cells): > 99 µM
- IC50 [19]: 1.01 µM
- EC90 (SARS-CoV-2): 0.26 µM

SMILES: C[C@@H](NC(=O)c1ccccc1CCC(=O)NNC(=O)COC(F)(F)F)c1cccc2ccccc12
- CC50 ([1]; A549-ACE2 cells): > 99 µM
- IC50 [19]: 52.9 µM
- EC90 (SARS-CoV-2): > 9.6 µM

SMILES: C[C@@H](NC(=O)c1ccccc1CCC(=O)NNC(=O)/C=C/C(=O)OC1CCC1)c1cccc2ccccc12
- CC50 ([1]; a549-ace2): 64.8 µM
- IC50 [19]: 0.33 µM
- EC90 (SARS-CoV-2): 0.27 µM

SMILES: CCOC(=O)/C=C/C(=O)NNC(=O)CCc1ccccc1C(=O)N[C@H](C)c1cccc(-c2cccs2)c1
- half-life [2]: 157 min
- CL/F [3]: 5090 mL/min/kg
- MRT last [4]: 7.02 min
- IC50 [19]: 0.14 µM
- selectivity ratio [20]: 56.7
- AUC(0-t) [6]: 362 ng·h/mL
- EC90 (SARS-CoV-2): 0.21 µM
- Cmax [7]: 20 ng/mL
- Cmax [8]: 3220 ng/mL
- Tlast [9]: 1 h
- microsomal CLint [10]: 618 µL/min/mg
- Vd [11]: 0.681 L/kg
- half-life [12]: 6.48 min
- AUC(0-t) [13]: 62 ng·h/mL
- fraction unbound [14]: 0.014
- MRT last [15]: 176 min
- Tlast [16]: 8 h
- bioavailability [17]: 1.9%
- clearance [18]: 95.1 mL/min/kg

SMILES: COC(=O)/C=C/C(=O)NNC(=O)CCc1ccccc1C(=O)N[C@H](C)c1cccc(-c2cc3ccccc3o2)c1
- CC50 ([1]; a549-ace2): 59 µM
- IC50 [19]: 0.25 µM
- EC90 (SARS-CoV-2): 0.12 µM

SMILES: CC(C)OC(=O)/C=C/C(=O)NNC(=O)CCc1ccccc1C(=O)N[C@H](C)c1cccc2ccccc12
- CC50 ([1]; a549-ace2): 59.3 µM
- IC50 [19]: 0.24 µM
- EC90 (SARS-CoV-2): 0.56 µM

SMILES: COC(=O)/C=C/C(=O)NNC(=O)CCc1ccccc1C(=O)N[C@H](C)c1cccc(-c2cncnc2)c1
- CC50 ([1]; A549-ACE2 cells): > 99 µM
- IC50 [19]: 0.35 µM
- EC90 (SARS-CoV-2): 9.55 µM

SMILES: C[C@@H](NC(=O)c1ccccc1CCC(=O)NNC(=O)/C=C/C(=O)OCc1ccc2ccccc2n1)c1cccc2ccccc12
- CC50 ([1]; a549-ace2): 13.6 µM
- IC50 [19]: 0.45 µM
- EC90 (SARS-CoV-2): 1.14 µM

SMILES: C[C@@H](NC(=O)c1ccccc1CCC(=O)NNC(=O)/C=C/c1ncco1)c1cccc2ccccc12
- CC50 ([1]; A549-ACE2 cells): > 99 µM
- IC50 [19]: 44.5 µM
- EC90 (SARS-CoV-2): > 9.6 µM

— ChEMBL document CHEMBL6120983, “Synthesis and Structure-Activity Relationship of Covalent Inhibitors of SARS-CoV-2 Papain-Like Protease with Antiviral Potency” (Bioorg Med Chem Lett, 2025)
